Measured values reported in a compilation of properties of binary mixtures (doi:10.1007/s11581-010-0511-5).

Assay: xn = mol fraction of the nth substance listed
Conditions: 101 kPa

Compound: CCCC[N+]1(C)CCCC1.O=S(=O)([N-]S(=O)(=O)C(F)(F)F)C(F)(F)F + CO
- electrical conductivity (293.15 K, x1 = 0.11): 0.628 S/m
- viscosity (293.15 K, x1 = 0.11): 2.16 mPa·s
- electrical conductivity (293.15 K, x1 = 0.16): 1.22 S/m
- viscosity (293.15 K, x1 = 0.16): 3.9 mPa·s
- electrical conductivity (293.15 K, x1 = 0.21): 1.6 S/m
- viscosity (293.15 K, x1 = 0.21): 6.01 mPa·s
- electrical conductivity (293.15 K, x1 = 0.32): 1.98 S/m
- viscosity (293.15 K, x1 = 0.32): 10.65 mPa·s
- electrical conductivity (293.15 K, x1 = 0.42): 2.14 S/m
- viscosity (293.15 K, x1 = 0.42): 15.15 mPa·s
- electrical conductivity (293.15 K, x1 = 0.47): 2.04 S/m
- viscosity (293.15 K, x1 = 0.47): 17.28 mPa·s
- electrical conductivity (293.15 K, x1 = 0.53): 1.82 S/m
- viscosity (293.15 K, x1 = 0.53): 19.42 mPa·s
- electrical conductivity (293.15 K, x1 = 0.58): 1.63 S/m
- viscosity (293.15 K, x1 = 0.58): 21.7 mPa·s
- electrical conductivity (293.15 K, x1 = 0.63): 1.47 S/m
- viscosity (293.15 K, x1 = 0.63): 24.4 mPa·s
- electrical conductivity (293.15 K, x1 = 0.68): 1.23 S/m
- viscosity (293.15 K, x1 = 0.68): 27.6 mPa·s
- electrical conductivity (293.15 K, x1 = 0.74): 0.998 S/m
- viscosity (293.15 K, x1 = 0.74): 31.9 mPa·s
- electrical conductivity (293.15 K, x1 = 0.79): 0.82 S/m
- viscosity (293.15 K, x1 = 0.79): 37.6 mPa·s
- electrical conductivity (293.15 K, x1 = 0.84): 0.649 S/m
- viscosity (293.15 K, x1 = 0.84): 45.2 mPa·s
- electrical conductivity (293.15 K, x1 = 0.89): 0.402 S/m
- viscosity (293.15 K, x1 = 0.89): 55.3 mPa·s
- viscosity (293.15 K, x1 = 0.95): 68.7 mPa·s
- electrical conductivity (293.15 K, x1 = 1): 0.229 S/m
- viscosity (293.15 K, x1 = 1): 86 mPa·s
- electrical conductivity (298.15 K, x1 = 0.05): 0.399 S/m
- viscosity (298.15 K, x1 = 0.05): 0.94 mPa·s
- electrical conductivity (298.15 K, x1 = 0.11): 0.684 S/m
- viscosity (298.15 K, x1 = 0.11): 1.93 mPa·s
- electrical conductivity (298.15 K, x1 = 0.16): 1.32 S/m
- viscosity (298.15 K, x1 = 0.16): 3.43 mPa·s
- electrical conductivity (298.15 K, x1 = 0.21): 1.73 S/m
- viscosity (298.15 K, x1 = 0.21): 5.24 mPa·s
- electrical conductivity (298.15 K, x1 = 0.32): 2.15 S/m
- viscosity (298.15 K, x1 = 0.32): 9.18 mPa·s
- electrical conductivity (298.15 K, x1 = 0.37): 2.32 S/m
- viscosity (298.15 K, x1 = 0.37): 11.1 mPa·s
- electrical conductivity (298.15 K, x1 = 0.42): 2.37 S/m
- viscosity (298.15 K, x1 = 0.42): 12.93 mPa·s
- electrical conductivity (298.15 K, x1 = 0.47): 2.33 S/m
- viscosity (298.15 K, x1 = 0.47): 14.69 mPa·s
- electrical conductivity (298.15 K, x1 = 0.53): 2.12 S/m
- viscosity (298.15 K, x1 = 0.53): 16.43 mPa·s
- electrical conductivity (298.15 K, x1 = 0.58): 1.88 S/m
- viscosity (298.15 K, x1 = 0.58): 18.28 mPa·s
- electrical conductivity (298.15 K, x1 = 0.63): 1.66 S/m
- viscosity (298.15 K, x1 = 0.63): 20.39 mPa·s
- electrical conductivity (298.15 K, x1 = 0.68): 1.43 S/m
- viscosity (298.15 K, x1 = 0.68): 23 mPa·s
- electrical conductivity (298.15 K, x1 = 0.74): 1.2 S/m
- viscosity (298.15 K, x1 = 0.74): 26.3 mPa·s
- electrical conductivity (298.15 K, x1 = 0.79): 0.991 S/m
- viscosity (298.15 K, x1 = 0.79): 30.8 mPa·s
- electrical conductivity (298.15 K, x1 = 0.84): 0.786 S/m
- viscosity (298.15 K, x1 = 0.84): 36.7 mPa·s
- electrical conductivity (298.15 K, x1 = 0.89): 0.495 S/m
- viscosity (298.15 K, x1 = 0.89): 44.6 mPa·s
- viscosity (298.15 K, x1 = 0.95): 54.9 mPa·s
- electrical conductivity (298.15 K, x1 = 1): 0.282 S/m
- viscosity (298.15 K, x1 = 1): 68.1 mPa·s
- electrical conductivity (303.15 K, x1 = 0.05): 0.43 S/m
- viscosity (303.15 K, x1 = 0.05): 0.88 mPa·s
- electrical conductivity (303.15 K, x1 = 0.11): 0.754 S/m
- viscosity (303.15 K, x1 = 0.11): 1.75 mPa·s
- electrical conductivity (303.15 K, x1 = 0.16): 1.43 S/m
- viscosity (303.15 K, x1 = 0.16): 3.06 mPa·s
- electrical conductivity (303.15 K, x1 = 0.21): 1.88 S/m
- viscosity (303.15 K, x1 = 0.21): 4.62 mPa·s
- electrical conductivity (303.15 K, x1 = 0.32): 2.35 S/m
- viscosity (303.15 K, x1 = 0.32): 7.96 mPa·s
- electrical conductivity (303.15 K, x1 = 0.37): 2.53 S/m
- viscosity (303.15 K, x1 = 0.37): 9.57 mPa·s
- electrical conductivity (303.15 K, x1 = 0.47): 2.59 S/m
- viscosity (303.15 K, x1 = 0.47): 12.57 mPa·s
- electrical conductivity (303.15 K, x1 = 0.53): 2.37 S/m
- viscosity (303.15 K, x1 = 0.53): 14.02 mPa·s
- electrical conductivity (303.15 K, x1 = 0.58): 2.1 S/m
- viscosity (303.15 K, x1 = 0.58): 15.54 mPa·s
- electrical conductivity (303.15 K, x1 = 0.63): 1.84 S/m
- viscosity (303.15 K, x1 = 0.63): 17.28 mPa·s
- electrical conductivity (303.15 K, x1 = 0.68): 1.6 S/m
- viscosity (303.15 K, x1 = 0.68): 19.39 mPa·s
- electrical conductivity (303.15 K, x1 = 0.74): 1.35 S/m
- viscosity (303.15 K, x1 = 0.74): 22.1 mPa·s
- electrical conductivity (303.15 K, x1 = 0.79): 1.13 S/m
- viscosity (303.15 K, x1 = 0.79): 25.6 mPa·s
- electrical conductivity (303.15 K, x1 = 0.84): 0.94 S/m
- viscosity (303.15 K, x1 = 0.84): 30.2 mPa·s
- electrical conductivity (303.15 K, x1 = 0.89): 0.601 S/m
- viscosity (303.15 K, x1 = 0.89): 36.2 mPa·s
- viscosity (303.15 K, x1 = 0.95): 44 mPa·s
- electrical conductivity (303.15 K, x1 = 1): 0.344 S/m
- viscosity (303.15 K, x1 = 1): 54 mPa·s
- electrical conductivity (308.15 K, x1 = 0.05): 0.464 S/m
- viscosity (308.15 K, x1 = 0.05): 0.82 mPa·s
- electrical conductivity (308.15 K, x1 = 0.11): 0.816 S/m
- viscosity (308.15 K, x1 = 0.11): 1.6 mPa·s
- electrical conductivity (308.15 K, x1 = 0.16): 1.54 S/m
- viscosity (308.15 K, x1 = 0.16): 2.75 mPa·s
- electrical conductivity (308.15 K, x1 = 0.21): 2.07 S/m
- viscosity (308.15 K, x1 = 0.21): 4.1 mPa·s
- electrical conductivity (308.15 K, x1 = 0.32): 2.55 S/m
- viscosity (308.15 K, x1 = 0.32): 6.97 mPa·s
- electrical conductivity (308.15 K, x1 = 0.37): 2.74 S/m
- viscosity (308.15 K, x1 = 0.37): 8.34 mPa·s
- electrical conductivity (308.15 K, x1 = 0.42): 2.86 S/m
- viscosity (308.15 K, x1 = 0.42): 9.64 mPa·s
- electrical conductivity (308.15 K, x1 = 0.53): 2.65 S/m
- viscosity (308.15 K, x1 = 0.53): 12.09 mPa·s
- electrical conductivity (308.15 K, x1 = 0.58): 2.36 S/m
- viscosity (308.15 K, x1 = 0.58): 13.36 mPa·s
- electrical conductivity (308.15 K, x1 = 0.63): 2.1 S/m
- viscosity (308.15 K, x1 = 0.63): 14.8 mPa·s
- electrical conductivity (308.15 K, x1 = 0.74): 1.57 S/m
- viscosity (308.15 K, x1 = 0.74): 18.74 mPa·s
- electrical conductivity (308.15 K, x1 = 0.79): 1.33 S/m
- viscosity (308.15 K, x1 = 0.79): 21.6 mPa·s
- electrical conductivity (308.15 K, x1 = 0.84): 1.1 S/m
- viscosity (308.15 K, x1 = 0.84): 25.3 mPa·s
- electrical conductivity (308.15 K, x1 = 0.89): 0.686 S/m
- viscosity (308.15 K, x1 = 0.89): 30.2 mPa·s
- viscosity (308.15 K, x1 = 0.95): 36.4 mPa·s
- electrical conductivity (308.15 K, x1 = 1): 0.415 S/m
- viscosity (308.15 K, x1 = 1): 44.4 mPa·s
- electrical conductivity (313.15 K, x1 = 0.05): 0.504 S/m
- viscosity (313.15 K, x1 = 0.05): 0.77 mPa·s
- electrical conductivity (313.15 K, x1 = 0.11): 0.86 S/m
- viscosity (313.15 K, x1 = 0.11): 1.47 mPa·s
- electrical conductivity (313.15 K, x1 = 0.16): 1.66 S/m
- viscosity (313.15 K, x1 = 0.16): 2.48 mPa·s
- electrical conductivity (313.15 K, x1 = 0.21): 2.24 S/m
- viscosity (313.15 K, x1 = 0.21): 3.67 mPa·s
- electrical conductivity (313.15 K, x1 = 0.26): 2.53 S/m
- viscosity (313.15 K, x1 = 0.26): 4.92 mPa·s
- electrical conductivity (313.15 K, x1 = 0.37): 2.95 S/m
- viscosity (313.15 K, x1 = 0.37): 7.34 mPa·s
- electrical conductivity (313.15 K, x1 = 0.42): 3.07 S/m
- viscosity (313.15 K, x1 = 0.42): 8.45 mPa·s
- electrical conductivity (313.15 K, x1 = 0.47): 3.09 S/m
- viscosity (313.15 K, x1 = 0.47): 9.51 mPa·s
- electrical conductivity (313.15 K, x1 = 0.58): 2.63 S/m
- viscosity (313.15 K, x1 = 0.58): 11.64 mPa·s
- electrical conductivity (313.15 K, x1 = 0.63): 2.38 S/m
- viscosity (313.15 K, x1 = 0.63): 12.85 mPa·s
- electrical conductivity (313.15 K, x1 = 0.79): 1.55 S/m
- viscosity (313.15 K, x1 = 0.79): 18.4 mPa·s
- electrical conductivity (313.15 K, x1 = 0.89): 0.876 S/m
- viscosity (313.15 K, x1 = 0.89): 25.1 mPa·s
- viscosity (313.15 K, x1 = 0.95): 29.8 mPa·s
- electrical conductivity (318.15 K, x1 = 0.05): 0.538 S/m
- viscosity (318.15 K, x1 = 0.05): 0.73 mPa·s
- electrical conductivity (318.15 K, x1 = 0.11): 0.94 S/m
- viscosity (318.15 K, x1 = 0.11): 1.36 mPa·s
- electrical conductivity (318.15 K, x1 = 0.16): 1.8 S/m
- viscosity (318.15 K, x1 = 0.16): 2.26 mPa·s
- electrical conductivity (318.15 K, x1 = 0.26): 2.7 S/m
- viscosity (318.15 K, x1 = 0.26): 4.39 mPa·s
- electrical conductivity (318.15 K, x1 = 0.32): 3.02 S/m
- viscosity (318.15 K, x1 = 0.32): 5.45 mPa·s
- electrical conductivity (318.15 K, x1 = 0.37): 3.18 S/m
- viscosity (318.15 K, x1 = 0.37): 6.46 mPa·s
- electrical conductivity (318.15 K, x1 = 0.42): 3.26 S/m
- viscosity (318.15 K, x1 = 0.42): 7.41 mPa·s
- electrical conductivity (318.15 K, x1 = 0.47): 3.3 S/m
- viscosity (318.15 K, x1 = 0.47): 8.32 mPa·s
- electrical conductivity (318.15 K, x1 = 0.53): 3.18 S/m
- viscosity (318.15 K, x1 = 0.53): 9.22 mPa·s
- electrical conductivity (318.15 K, x1 = 0.58): 2.86 S/m
- viscosity (318.15 K, x1 = 0.58): 10.16 mPa·s
- electrical conductivity (318.15 K, x1 = 0.74): 1.98 S/m
- viscosity (318.15 K, x1 = 0.74): 14.02 mPa·s
- electrical conductivity (318.15 K, x1 = 0.89): 0.991 S/m
- viscosity (318.15 K, x1 = 0.89): 21.4 mPa·s
- electrical conductivity (318.15 K, x1 = 1): 0.559 S/m
- viscosity (318.15 K, x1 = 1): 29.7 mPa·s
